# Test results as given in patent US20030190368A1, “METHODS OF DIAGNOSIS AND TRIAGE USING CELL ACTIVATION MEASURES” (priority 1998, published 2003).
# “Also recorded” adds a separate entry of the source.
# Key:
# rats = experiment: Bolus injection of pancreatic homogenate (mock SAO shock); format: in vivo
# Description: A bolus injection of incubated pancreatic homogenate was tested for its ability to lead to circulatory shock in the rat. The ability of Futhan pretreatment to mitigate shock induced in this manner was also tested. A mock SAO shock protocol was repeated as previously described, with either 60 min Futhan or saline pretreatment and a 2 ml bolus injection of either pancreatic homogenate or low-molecular weight pancreatic homogenate injected in lieu of arterial clamping.
# The SAO shock experiments were repeated with the bolus injection of pancreatic homogenate in an effort to simulate the “unclamping” of the arteries and liberation of pancreatic components into the circulation instead of the actual ischemia/reperfusion of the splanchnic region. The low-molecular weight (2 ml) as well whole homogenate (2 ml) were tested for their ability to induce hypotension and cause circulatory shock. The ability of Futhan to counter the effects of the injection of pancreatic homogenate was also tested as in the SAO shock protocol. At the termination of these experiments arterial blood was drawn for the determination of plasma peroxide concentration using the peroxide electrode measurement technique.
# [1] = tested on: rats subjected to SAO shock; experiment: Splanchnic arterial occlusion (SAO) shock with Futhan pretreatment; format: in vivo, rat
# Description: Rats randomly selected were weighed and anesthetized, and arterial and venous catheters were inserted which were used for blood pressure measurements and anesthesia, respectively. […] At the termination of the experiments arterial blood was drawn for determination of plasma peroxide concentration using a peroxide electrode measurement technique.
# Male Wistar rats (250-320 g) were randomly divided into SAO shock (n=7) and SAO shock sham groups (n=6). Animals were cannulated via the femoral arteries and vein under general anesthesia using pentobarbital (50 mg/kg i.m.). No heparin was injected other than that needed to ensure open catheter lines (10U/ml Plasma-Lyte). One femoral artery was connected up to monitor continuous mean arterial pressure (MAP), while the other was used for the collection of blood samples. […] MAP and heart rate were recorded.
structure (smiles),measurement,setting,value
"CS(=O)(=O)O.CS(=O)(=O)O.N=C(N)Nc1ccc(C(=O)Oc2ccc3cc(C(=N)N)ccc3c2)cc1 [Futhan, 6-amidino-2-naphthyl p-guanidinobenzoate dimethanesulfonate]",mortality after pancreatic homogenate injection in Futhan-pretreated rats,"rats; 60 minute post-injection observation period, Futhan 3.3 mg/kg body wt/hr",None of the Futhan-treated group died
same,MAP after pancreatic homogenate injection in Futhan-pretreated rats,rats; Futhan 3.3 mg/kg body wt/hr,MAP returned to nearly initial values
same,blood pressure effect of Futhan infusion pretreatment,rats; infusion pump 3.3 mg/kg body wt/hr,depression of MAP
same,"MAP and survival time, small bolus regimen","[1]; 0.05 ml bolus every 5 minutes, 1, 3.3, 10, 20 mg Futhan/kg body wt, pretreatment 30 or 60 min",uniformly unable to restore MAP or increase survival times
same,blood pressure effect of Futhan injection,[1]; 0.05 ml doses,transient hypotension
same,mean arterial pressure after removal of arterial clamps,"[1]; Futhan 3.3 mg/kg body wt/hour i.v. infusion pump, 60 min pretreatment, vs saline",significant reduction in the fall of blood pressure
same,survival / mortality after SAO shock,"[1]; Futhan 3.3 mg/kg body wt/hour infusion, 60 min pretreatment, vs saline controls, dimethanesulfonate",significant increase in survival; also recorded: prevented mortality
same,circulating plasma peroxide after SAO shock,"[1]; Futhan 3.3 mg/kg body wt/hour infusion, vs control animals",significantly lower levels of circulating peroxide production
same,"plasma peroxide formation after SAO shock, small bolus regimen","[1]; initial experiments, bolus injections",ineffective
